Measured values: patent US20150344540A1, “NOVEL GLP-1 RECEPTOR AGONISTS WITH CHOLESTEROL EFFLUX ACTIVITY” (NOVO NORDISK A/S, priority 2012, published 2015)
Like-named read-outs stand apart in the source and are kept apart here. Where a SMILES comes first, the peptide text is derived from it. [ ]: non-standard residue; d: D form. Aib = CC(C)(N)C(=O)O

Experiments:
[1] = tested on: Mouse monocyte/macrophage cell line, RAW 264.7; assay: Cholesterol efflux assay (3H-cholesterol, macrophage cell line); type: cell-based; conditions: RAW 264.7, 4 hrs incubation, 0.1% human serum albumin, ABCA1-mediated efflux
human GLP-1 receptor = human GLP-1 receptor (Homo sapiens, UniProt P43220); assay: Functional GLP-1 receptor assay, in vitro potency (CRE luciferase; whole cells); type: cell-based; conditions: BHK cells expressing human GLP-1 receptor
human GLP-1 receptor, sequence (P43220 24-463): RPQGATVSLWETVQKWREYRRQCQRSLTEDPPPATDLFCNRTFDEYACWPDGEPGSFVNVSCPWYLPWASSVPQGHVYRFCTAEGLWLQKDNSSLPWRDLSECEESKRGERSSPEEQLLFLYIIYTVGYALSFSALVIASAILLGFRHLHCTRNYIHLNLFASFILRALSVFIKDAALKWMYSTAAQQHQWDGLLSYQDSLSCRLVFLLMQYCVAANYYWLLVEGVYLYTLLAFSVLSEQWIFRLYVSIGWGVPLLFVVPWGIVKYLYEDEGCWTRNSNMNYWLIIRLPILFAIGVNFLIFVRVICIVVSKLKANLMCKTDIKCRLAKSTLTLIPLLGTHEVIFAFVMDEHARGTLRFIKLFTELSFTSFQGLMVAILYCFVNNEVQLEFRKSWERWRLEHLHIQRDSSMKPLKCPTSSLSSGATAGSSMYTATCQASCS

[2] = GLP1R CRE luc 1% HSA EC50 Mean Value, 1% HSA
[3] = 0% HSA, read-out: GLP1R CRE luc 0% HSA EC50 Mean Value

Row | Molecule | EC50 (human GLP-1 receptor; [2]) [nM] | EC50 (human GLP-1 receptor; [3]) [nM] | 4 h Cholesterol Efflux Emax [1] [%]
1 | CC[C@H](C)[C@H](NC(=O)[C@H](Cc1ccccc1)NC(=O)[C@H](CCC(=O)O)NC(=O)[C@H](CCCCN)NC(=O)[C@@H](NC(=O)[C@H](C)NC(=O)[C@H](CCC(=O)O)NC(=O)CNC(=O)[C@H](CCC(=O)O)NC(=O)[C@H](CC(C)C)NC(=O)[C@H](Cc1ccc(O)cc1)NC(=O)[C@H](CO)NC(=O)[C@H](CO)NC(=O)[C@@H](NC(=O)[C@H](CC(=O)O)NC(=O)[C@H](CO)NC(=O)[C@@H](NC(=O)[C@H](Cc1ccccc1)NC(=O)[C@@H](NC(=O)CNC(=O)[C@H](CCC(=O)O)NC(=O)C(C)(C)NC(=O)[C@@H](N)Cc1c[nH]cn1)[C@@H](C)O)[C@@H](C)O)C(C)C)C(C)C)C(=O)N[C@@H](C)C(=O)N[C@@H](Cc1c[nH]c2ccccc12)C(=O)N[C@@H](CC(C)C)C(=O)N[C@@H](CC(C)C)C(=O)N[C@@H](CCC(=O)O)C(=O)N[C@@H](CCCCN)C(=O)NC(C)(C)C(=O)N[C@@H](CCCCN)C(=O)N[C@@H](CCC(=O)O)C(=O)N[C@@H](Cc1ccccc1)C(=O)N[C@@H](CC(C)C)C(N)=O [Compound 84, [Aib8,Glu23,Val25,Leu33,Glu34,Lys35,Aib36,Lys37]-GLP-1-(7-37)-peptidyl-Glu-Phe-Leu amide] (H-H[Aib]EGTFTSDVSSYLEGEAVKEFIAWLLEK[Aib]KEFL-NH2) | 0.076 | – | 94
2 | CC[C@H](C)[C@H](NC(=O)[C@H](Cc1ccccc1)NC(=O)[C@H](CCC(=O)O)NC(=O)[C@H](CCCCN)NC(=O)[C@@H](NC(=O)[C@H](C)NC(=O)[C@H](CCC(=O)O)NC(=O)CNC(=O)[C@H](CCC(=O)O)NC(=O)[C@H](CC(C)C)NC(=O)[C@H](Cc1ccc(O)cc1)NC(=O)[C@H](CO)NC(=O)[C@H](CO)NC(=O)[C@@H](NC(=O)[C@H](CC(=O)O)NC(=O)[C@H](CO)NC(=O)[C@@H](NC(=O)[C@H](Cc1ccccc1)NC(=O)[C@@H](NC(=O)CNC(=O)[C@H](CCC(=O)O)NC(=O)C(C)(C)NC(=O)[C@@H](N)Cc1c[nH]cn1)[C@@H](C)O)[C@@H](C)O)C(C)C)C(C)C)C(=O)N[C@@H](C)C(=O)N[C@@H](Cc1c[nH]c2ccccc12)C(=O)N[C@@H](CC(C)C)C(=O)N[C@H](C(=O)N[C@@H](CCC(=O)O)C(=O)N[C@@H](CCCCN)C(=O)NC(C)(C)C(=O)N[C@@H](CCCCN)C(=O)N[C@@H](CCC(=O)O)C(N)=O)C(C)C [Compound 63, [Aib8,Glu23,Val25,Glu34,Lys35,Aib36,Lys37]-GLP-1-(7-37)-peptidyl-Glu amide] (H-H[Aib]EGTFTSDVSSYLEGEAVKEFIAWLVEK[Aib]KE-NH2) | 0.005 | 0.014 | 135
3 | CC[C@H](C)[C@H](NC(=O)[C@H](Cc1ccccc1)NC(=O)[C@H](CCC(=O)O)NC(=O)[C@H](CCCNC(=N)N)NC(=O)[C@@H](NC(=O)[C@H](C)NC(=O)[C@H](CCC(=O)O)NC(=O)[C@H](CCC(=O)O)NC(=O)[C@H](CCC(=O)O)NC(=O)[C@H](CCSC)NC(=O)[C@H](CCC(N)=O)NC(=O)[C@H](CCCCN)NC(=O)[C@H](CO)NC(=O)[C@H](CC(C)C)NC(=O)[C@H](CC(=O)O)NC(=O)[C@H](CO)NC(=O)[C@@H](NC(=O)[C@H](Cc1ccccc1)NC(=O)[C@@H](NC(=O)CNC(=O)[C@H](CCC(=O)O)NC(=O)C(C)(C)NC(=O)[C@@H](N)Cc1c[nH]cn1)[C@@H](C)O)[C@@H](C)O)C(C)C)C(=O)N[C@@H](CCC(=O)O)C(=O)N[C@@H](Cc1c[nH]c2ccccc12)C(=O)N[C@@H](CC(C)C)C(=O)N[C@@H](CCCCN)C(=O)N[C@@H](CC(N)=O)C(=O)N[C@@H](CCCCN)C(=O)NC(C)(C)C(=O)N[C@@H](CC(C)C)C(=O)N[C@@H](CCC(=O)O)C(=O)N[C@@H](Cc1ccccc1)C(=O)N[C@@H](CC(C)C)C(=O)N[C@@H](CCC(=O)O)C(=O)N[C@@H](CC(C)C)C(=O)N1CCC[C@H]1C(N)=O [Compound 40, [Aib2,Glu21,Lys29,Aib30,Leu31,Glu32,Phe33,Leu34,Glu35,Leu361-Exendin-4-(1-37)-peptide amide] (H-H[Aib]EGTFTSDLSKQMEEEAVREFIEWLKNK[Aib]LEFLELP-NH2; N-terminus assumed) | 0.01 | 0.023 | 91
4 | CC[C@H](C)[C@H](NC(=O)[C@H](Cc1ccccc1)NC(=O)[C@H](CCC(=O)O)NC(=O)[C@H](CCCNC(=N)N)NC(=O)[C@@H](NC(=O)[C@H](C)NC(=O)[C@H](CCC(=O)O)NC(=O)CNC(=O)[C@H](CCC(=O)O)NC(=O)[C@H](CC(C)C)NC(=O)[C@H](Cc1ccc(O)cc1)NC(=O)[C@H](CO)NC(=O)[C@H](CO)NC(=O)[C@@H](NC(=O)[C@H](CC(=O)O)NC(=O)[C@H](CO)NC(=O)[C@@H](NC(=O)[C@H](Cc1ccccc1)NC(=O)[C@@H](NC(=O)CNC(=O)[C@H](CCC(=O)O)NC(=O)C(C)(C)NC(=O)[C@@H](N)Cc1c[nH]cn1)[C@@H](C)O)[C@@H](C)O)C(C)C)C(C)C)C(=O)N[C@@H](C)C(=O)N[C@@H](Cc1c[nH]c2ccccc12)C(=O)N[C@@H](CC(C)C)C(=O)N[C@H](C(=O)N[C@@H](CCC(=O)O)C(=O)N[C@@H](CCCNC(=N)N)C(=O)NC(C)(C)C(=O)N[C@@H](CCCNC(=N)N)C(=O)N[C@@H](CCC(=O)O)C(=O)N[C@@H](Cc1ccccc1)C(=O)N[C@@H](CC(C)C)C(N)=O)C(C)C [Compound 43] (H-H[Aib]EGTFTSDVSSYLEGEAVREFIAWLVER[Aib]REFL-NH2) | 0.041 | 0.086 | 82
5 | CC[C@H](C)[C@H](NC(=O)[C@H](Cc1ccccc1)NC(=O)[C@H](CCC(=O)O)NC(=O)[C@H](CCCCN)NC(=O)[C@@H](NC(=O)[C@H](C)NC(=O)[C@H](CCC(=O)O)NC(=O)CNC(=O)[C@H](CCC(=O)O)NC(=O)[C@H](CC(C)C)NC(=O)[C@H](Cc1ccc(O)cc1)NC(=O)[C@H](CO)NC(=O)[C@H](CO)NC(=O)[C@@H](NC(=O)[C@H](CC(=O)O)NC(=O)[C@H](CO)NC(=O)[C@@H](NC(=O)[C@H](Cc1ccccc1)NC(=O)[C@@H](NC(=O)CNC(=O)[C@H](CCC(=O)O)NC(=O)C(C)(C)NC(=O)[C@@H](N)Cc1c[nH]cn1)[C@@H](C)O)[C@@H](C)O)C(C)C)C(C)C)C(=O)N[C@@H](C)C(=O)N[C@@H](Cc1c[nH]c2ccccc12)C(=O)N[C@@H](CC(C)C)C(=O)N[C@H](C(=O)N[C@@H](CCC(=O)O)C(=O)N[C@@H](CCCCN)C(=O)NC(C)(C)C(=O)N[C@@H](CCCCN)C(=O)N[C@@H](CCC(=O)O)C(=O)N[C@@H](Cc1ccccc1)C(=O)N[C@@H](CC(C)C)C(=O)N[C@@H](CCC(=O)O)C(N)=O)C(C)C [Compound 66, [Aib8,Glu23,Val25,Glu34,Lys35,Aib36,Lys37]-GLP-1-(7-37)-peptidyl-Glu-Phe-Leu-Glu amide] | 0.039 | 0.101 | 102
6 | CC[C@H](C)[C@H](NC(=O)[C@H](Cc1ccccc1)NC(=O)[C@H](CCC(=O)O)NC(=O)[C@H](CCCNC(=N)N)NC(=O)[C@@H](NC(=O)[C@H](C)NC(=O)[C@H](CCC(=O)O)NC(=O)[C@H](CCC(=O)O)NC(=O)[C@H](CCC(=O)O)NC(=O)[C@H](CCSC)NC(=O)[C@H](CCC(N)=O)NC(=O)[C@H](CCCCN)NC(=O)[C@H](CO)NC(=O)[C@H](CC(C)C)NC(=O)[C@H](CC(=O)O)NC(=O)[C@H](CO)NC(=O)[C@@H](NC(=O)[C@H](Cc1ccccc1)NC(=O)[C@@H](NC(=O)CNC(=O)[C@H](CCC(=O)O)NC(=O)C(C)(C)NC(=O)[C@@H](N)Cc1c[nH]cn1)[C@@H](C)O)[C@@H](C)O)C(C)C)C(=O)N[C@@H](CCC(=O)O)C(=O)N[C@@H](Cc1c[nH]c2ccccc12)C(=O)N[C@@H](CC(C)C)C(=O)N[C@@H](CCCCN)C(=O)N[C@@H](CC(N)=O)C(=O)N[C@@H](CCCCN)C(=O)NC(C)(C)C(=O)N[C@@H](CC(C)C)C(=O)N[C@@H](CCC(=O)O)C(=O)N[C@@H](CO)C(=O)N[C@@H](CC(C)C)C(=O)N[C@@H](CCC(=O)O)C(=O)N[C@@H](CC(C)C)C(=O)N[C@@H](CC(C)C)C(N)=O [Compound 37, [Aib2,Glu21,Lys29,Aib30,Leu31,Glu32,Leu34,Glu35,Leu36,Leu371-Exendin-4-(1-37)-peptide amide] (H-H[Aib]EGTFTSDLSKQMEEEAVREFIEWLKNK[Aib]LESLELL-NH2; N-terminus assumed) | 0.011 | 0.023 | 102

Continued, in another order:

Row | EC50 (human GLP-1 receptor; [2]) [nM] | EC50 (human GLP-1 receptor; [3]) [nM] | Molecule | 4 h Cholesterol Efflux Emax [1] [%]
7 | 0.061 | – | CC[C@H](C)[C@H](NC(=O)[C@H](Cc1ccccc1)NC(=O)[C@H](CCC(=O)O)NC(=O)[C@H](CCCCN)NC(=O)[C@@H](NC(=O)[C@H](C)NC(=O)[C@H](CCC(=O)O)NC(=O)CNC(=O)[C@H](CCC(=O)O)NC(=O)[C@H](CC(C)C)NC(=O)[C@H](Cc1ccc(O)cc1)NC(=O)[C@H](CO)NC(=O)[C@H](CO)NC(=O)[C@@H](NC(=O)[C@H](CC(=O)O)NC(=O)[C@H](CO)NC(=O)[C@@H](NC(=O)[C@H](Cc1ccccc1)NC(=O)[C@@H](NC(=O)CNC(=O)[C@H](CCC(=O)O)NC(=O)C(C)(C)NC(=O)[C@@H](N)Cc1c[nH]cn1)[C@@H](C)O)[C@@H](C)O)C(C)C)C(C)C)C(=O)N[C@@H](CCC(N)=O)C(=O)N[C@@H](Cc1c[nH]c2ccccc12)C(=O)N[C@@H](CC(C)C)C(=O)N[C@@H](CC(C)C)C(=O)N[C@@H](CCC(=O)O)C(=O)N[C@@H](CCCCN)C(=O)NC(C)(C)C(=O)N[C@@H](CCCCN)C(=O)N[C@@H](CCC(=O)O)C(=O)N[C@@H](Cc1ccccc1)C(=O)N[C@@H](CC(C)C)C(N)=O [Compound 79, [Aib8,Glu23,Val25,Gln30,Leu33,Glu34,Lys35,Aib36,Lys37]-GLP-1-(7-37)-peptidyl-Glu-Phe-Leu amide] (H-H[Aib]EGTFTSDVSSYLEGEAVKEFIQWLLEK[Aib]KEFL-NH2) | 100
8 | 0.011 | 0.034 | H-HAEGTFTSDVSSYLEGQAAKEFIAWLVEKVKEFLER-OH [Compound 130, [Glu34,Lys35,Val36,Lys37]-GLP-1-(7-37)-peptidyl-Glu-Phe-Leu-Glu-Arg] | 125
